The text below walks through data of patent EP1770089A1, “Pyranodibenzofuran derivatives with antifungal and antibacterial activity” (priority 2005, dated 2007).

Values after ≈ are worked out from the molar mass of the structure shown. Like-named read-outs stand apart in the source and are kept apart here.

What all share (assay type): cell-based
The subject of assay [1] is Candida albicans. The assay is described as follows: In vitro activity (MIC99) against Candida albicans. The following applies: > 99 % inhibition of growth; for MIC99: Candida albicans, read-out: MIC99 C. albicans. As for the experimental part:
The antifungal activity of compounds 5, 9, and 11-22 against Candida albicans was analyzed by the measure of the MIC99 concentration (see Table 1). Table 1. In Vitro Activity against Candida albicans of pyranodibenzofuran derivatives

Assay [2] relates to Mycobacterium smegmatis mc^2155. The assay is described as follows: Mycobacterial growth inhibition in liquid culture (MIC99). To be noted: two-day's growth at 37°C, 99% decrease vs DMSO control; for MIC99: Mycolicibacterium smegmatis, MC2155|MC^2155, 48 h.
In assay [3] the test system is Mycobacterium tuberculosis H37Rv. The assay is described as follows: Mycobacterial growth inhibition in liquid culture, CFU plating (MIC99). To be noted: for MIC99: 504 h.
Assay [4] deals with L1210 cells. The assay is described as follows: Cytotoxicity, MTA (Microculture Tetrazolium Assay) test. The following applies: cytotoxicity on L1210 cells. The method, then: The cytotoxicity of compounds 5, 9, and 10-21 was determined in L1210 cells using the MTA (Microculture Tetrazolium Assay) test.
The subject of assay [5] is M. tuberculosis Beijing (GC1237). The assay can be described thus: Growth inhibition in liquid culture, CFU plating (MIC99). To be noted: Mycobacterium tuberculosis.
For assay [6], the system named is M. tuberculosis H37Ra. Described as above. The following applies: Mycobacterium tuberculosis.
Assay [7] concerns M. bovis BCG (Pasteur). The assay is described as follows: microbe, parasite or virus in culture. To be noted: Mycobacterium tuberculosis variant bovis BCG.
The test system of assay [8] is M. microti (MYC-942272). The assay can be described thus: Growth inhibition in liquid culture, CFU plating (MIC99).
The test system of assay [9] is Corynebacterium jeikeium. The assay can be described thus: Growth inhibition in liquid medium, CFU plating (MIC99). The following applies: Actinomycetes. The method, then:
(§1) To further assess its specificity, effect of compounds 9 and 16 was also assessed in vitro growth in liquid medium on a whole range of bacteria (Corynebacterium jeikeium, Escherichia coli, Enterococcus faecalis, Klebsiella oxytoca, Nocardia asteroides, Staphylococcus aureus, Pseudomonas aeruginosa and Streptomyces). Compounds were solubilized in dimethylsulfoxide (DMSO) and 100 µl of the appropriate dilution were added to a 5 ml culture with predetermined bacterium inoculum. Quantification of the bacteria was carried out by plating on appropriate agar serial 5-fold dilutions in medium, and colony forming units (CFUs) were ascertained after 24 to 48 hours according to the strains. Table 5. Antibacterial activity of compounds 9 and 16 on other bacteria

In assay [10] the test system is Enterococcus faecalis. The description is as above. To be noted: Gram-positive. As for the experimental part: as §1
The subject of assay [11] is Escherichia coli. The assay is described as above. To be noted: Gram-negative. The method, then: as §1
The subject of assay [12] is Nocardia asteroides. The assay is described as above. The following applies: Actinomycetes. As for the experimental part: as §1
For assay [13], the system named is Pseudomonas aeruginosa. The description is as above. The following applies: Gram-negative. The method, then: as §1
Assay [14] deals with Macrophages. The assay is described as follows: Cytotoxicity, MTT test. To be noted: cytotoxicity on macrophages. As for the experimental part:
(§2) The cytotoxicity of compounds 9 and 16 was further assessed in various mammalian cell lines using the MTT test. RAW and A549 cell lines were maintained in RPMI 1640 medium without L-GLU supplemented with 10% Fetal calf serum (FCS), penicillin-streptomycin solution 1 % at 37 °C in air with 5 % CO2. VERO cell lines were maintained in D-MEM medium without L-GLU supplemented with 10% Fetal calf Serum (FCS), penicillin-streptomycin solution 1 % at 37 °C in air with 5 % CO2. Proliferating cells were seeded for 96-well microtitration plates at a density of 5. 10^5 cells/mL which were further incubated for 24 h at 37°C under 5 % CO2 in air before each assay. Various concentrations of solutions of 9 and 16 (10 µl/well) in 1.25 % dimethylsulfoxide (DMSO)) were added and then incubated for 24 hours under the above conditions. At the end of incubation, 20 µl of dimethylthiazolyl diphenyl tetrazolium bromide solution (MTT) (7.5 mg/ml) was then added into each well and further incubated for 4 h at 37°C to allow the formation of formazan. The crystals of formazan were then dissolved with 100 µl of an acidic solution (Sodium dodecyl sulfate (SDS) 10 %, HCl 10 mM). The optical density of each well was measured at 595 nm using a Multiwell plate reader. The values given are the average means of six replicates. The 50 % inhibition concentration was determined by curve fitting.
In general terms: Tetrazolium dyes change colour on reduction, which living cells bring about.

The subject of assay [15] is VERO cells. The assay can be described thus: Cytotoxicity, MTT test. To be noted: for IC50: cytotoxicity on VERO cells, MTT, 24 hours. The method, then:
as §2

Setting [16] is: read-out: MIC99 on M. smegmatis, mc2155.
Setting [17] is: mc2155, read-out: MIC99 on M. smegmatis.
[18] abbreviates: Mycobacterium tuberculosis, H37RV, H37Rv, three weeks growth in 7H9, CFU on 7H11, NI = no inhibition at 1 mg/mL, read-out: MIC99 on M. tuberculosis.
Setting [19] is: H37Rv, three weeks growth in 7H9, CFU on 7H11, NI = no inhibition at 1 mg/mL.
[20] abbreviates: Mycobacterium tuberculosis, H37RV, M. tuberculosis H37Rv, three week growth in 7H9/OADC, read-out: MIC99.

For `CC1(C)Oc2cc3c(cc2[C@H](O)[C@@H]1O)oc1ccccc13` (racemic) [Compound 11, (±)cis-3,4-dihydro-3,4-dihydroxy-2,2-dimethyl-2H-benzofuro[2,3-g]-[1]-benzopyran], the MIC99 in assay [1] was 27 µg/mL (≈ 95 µM); in assay [2] (setting [16]) it was 30 to 60 µg/mL (≈ 106 to 211 µM); in assay [2] (setting [17]) it was 60 µg/mL (≈ 211 µM); in [3] (setting [18]) it was greater than 1000 µg/mL. For the same molecule, the IC50 in [4] (Mus musculus, read-out: IC50) is 13 µg/mL (≈ 45.7 µM).
For `CC1(C)Oc2ccc3oc4ccccc4c3c2[C@@H](O)[C@H]1O` (racemic) [Compound 12, (±)cis-1,2-dihydro-1,2-dihydroxy-3,3-dimethyl-3H-benzofuro[3,2-f][1]benzopyran] the same measures were greater than 160 µg/mL, 30 to 60 µg/mL (≈ 106 to 211 µM), 30 µg/mL (≈ 106 µM), 60 µg/mL (≈ 211 µM) and 1.3 µg/mL (≈ 4.57 µM).
On to `CC1(C)Oc2ccc3oc4ccccc4c3c2C(=O)C1O` (racemic) [Compound 13, (±)2,3-dihydro-2-hydroxy-3,3-dimethyl-1H-benzofuro[3,2-f][1]benzopyran-1-one], for which the MIC99 in assay [1] was greater than 330 µg/mL. The IC50 in assay [4] (Mus musculus, read-out: IC50) turned out to be 5.04 µg/mL (≈ 17.9 µM).
Take `CC(=O)CC1(O)C(=O)c2c(ccc3oc4ccccc4c23)OC1(C)C` (racemic) [Compound 14, (±)2,3-dihydro-2-hydroxy-3,3-dimethyl-2-(2-oxopropyl)-1Hbenzofuro[3,2f][1]benzopyran-1-one]: the “MIC99 C. albicans” value in assay [1] was determined as 150 µg/mL (≈ 443 µM). Besides, the IC50 in assay [4] is given as 18.981 µg/mL (≈ 56.1 µM).
Turning to `CC1(C)Oc2ccc3oc4ccccc4c3c2[C@@H](O)[C@@H]1O` (racemic) [Compound 15, (±)trans-1,2,-dihydro-1,2-dihydroxy-3,3-dimethyl-3H-benzofuro[3,2-f][1]benzopyran], the “MIC99 C. albicans” value in assay [1] is greater than 300 µg/mL. Further, in assay [2] (mc2155), the “MIC99 on M. smegmatis” value is on record as 30 µg/mL (≈ 106 µM). In addition, the “MIC99 on M. tuberculosis” value in assay [3] (setting [19]) is reported as “NI (No inhibition observed at the highest concentration tested (1 mg/mL))”. The IC50 in assay [4] is 12.3405 µg/mL (≈ 43.4 µM).
Consider `CC(=O)O[C@H]1c2cc3oc4ccccc4c3cc2OC(C)(C)[C@H]1OC(C)=O` (racemic) [Compound 17, (±)cis-3,4-diacetoxy-3,4-dihydro-2,2-dimethyl-2H-benzofuro[2,3-g]-[1]-benzopyran], for which the MIC99 in [1] was greater than 400 µg/mL. Moreover, in assay [4] (Mus musculus, read-out: IC50), the IC50 is 8.52 µg/mL (≈ 23.1 µM).
On to `CC(=O)O[C@@H]1c2c(ccc3oc4ccccc4c23)OC(C)(C)[C@@H]1OC(C)=O` (racemic) [Compound 18, (±)cis-1,2-diacetoxy-1,2-dihydro-3,3-dimethyl-3H-benzofuro[3,2-f][1]benzopyran], for which the MIC99 in assay [1] was greater than 300 µg/mL. Further, in [4] (Mus musculus, read-out: IC50), the IC50 was found to be 9.35 µg/mL (≈ 25.4 µM).
`CC(=O)O[C@@H]1c2c(ccc3oc4ccccc4c23)OC(C)(C)[C@H]1OC(C)=O` (racemic) [Compound 19, (±)trans-1,2,-diacetoxy-1,2-dihydro-3,3-dimethyl-3H-benzofuro[3,2-f][1]benzopyran]: the “MIC99 C. albicans” value in assay [1] is greater than 300 µg/mL. For the same molecule, the “MIC99 on M. smegmatis” value in assay [2] (mc2155) is recorded as 180 µg/mL (≈ 489 µM). For the same molecule, the “MIC99 on M. tuberculosis” value in assay [3] (setting [19]) is “NI (No inhibition observed at the highest concentration tested (1 mg/mL))”. Moreover, the IC50 in [4] is 5.5005 µg/mL (≈ 14.9 µM).
In the case of `CC(=O)OC1C(=O)c2c(ccc3oc4ccccc4c23)OC1(C)C` (racemic) [Compound 20, (±)2-acetoxy-2,3-dihydro-2-hydro-3,3-dimethyl-1H-benzofuro[3,2-f][1]benzopyran-1-one], in [1], the “MIC99 C. albicans” value is greater than 280 µg/mL. In assay [4], this molecule had an IC50 of 28.5 µg/mL (≈ 87.9 µM).
Consider `C#CC(C)(C)Oc1ccc2oc3ccccc3c2c1` [Compound 5, 2-(1,1-dimethyl-propargyloxy)-dibenzofuran], for which the MIC99 in assay [2] (setting [16]) was 12 µg/mL (≈ 47.9 µM); in [3] (setting [18]), greater than 1000 µg/mL; in [3] (setting [20]) it was greater than 500 µg/mL; in [5] (read-out: MIC99) it was greater than 500 µg/mL; in [6], greater than 500 µg/mL; in assay [7], greater than 500 µg/mL. The MIC99 in [8] is greater than 500 µg/mL.
As for `C=C1Oc2ccc3oc4ccccc4c3c2C1(C)C` [Compound 10, 1,2-dihydro-1,1-dimethyl-2-methylenebenzofuro[5,4-b]benzofuran], the MIC99 in assay [1] is greater than 300 µg/mL. Also, the IC50 in assay [4] (Mus musculus, read-out: IC50) was 3.71 µg/mL (≈ 14.8 µM).
As for `CC1(C)CCc2c(ccc3oc4ccccc4c23)O1` [Compound 16, 1,2-dihydro-3,3-dimethyl-3H-benzofuro[3,2-f][1]benzopyran], the MIC99 in assay [2] (setting [16]) is 5 µg/mL (≈ 19.8 µM); in assay [2] (setting [17]), 1 µg/mL (≈ 3.96 µM); in assay [3] (setting [18]), 5 µg/mL (≈ 19.8 µM); in assay [3] (Mycobacterium tuberculosis, H37RV, M. tuberculosis H37Rv, three week growth in 7H9/OADC), less than 5 µg/mL; in assay [5] it was less than 5 µg/mL; in [6], 10 µg/mL (≈ 39.6 µM). The MIC99 in [7] was 10 µg/mL (≈ 39.6 µM); in assay [9], greater than 150 µg/mL; in assay [10], greater than 500 µg/mL; in assay [11], greater than 500 µg/mL; in assay [12] it was 15 µg/mL (≈ 59.4 µM); in assay [13], greater than 500 µg/mL. In [3] (Mycobacterium tuberculosis, H37RV, summary statement, read-out: MIC measured on M. tuberculosis), the minimum inhibitory concentration (MIC) was less than 6.25 µg/mL. For the same molecule, the IC50 is greater than 50 µg/mL in [14] (Macrophage, 24 h, read-out: IC50); greater than 100 µg/mL in [14] (24 hours); greater than 50 µg/mL in assay [15] (Chlorocebus sabaeus, Vero, 24 h, read-out: IC50); 100 µg/mL (≈ 396 µM) in [15]. Besides, the “Selectivity Index” value in [15] (summary statement, cell type not specified) is given as “above 10”.
`NNC(=O)c1ccncc1` [INH, isoniazid, reference compound]: the MIC99 came to 13 µg/mL (≈ 94.8 µM) in [2] (setting [17]); 0.1 µg/mL (≈ 0.729 µM) in [3] (setting [18]); 0.1 µg/mL (≈ 0.729 µM) in assay [3] (setting [20]); 0.1 µg/mL (≈ 0.729 µM) in assay [5] (read-out: MIC99); 1 µg/mL (≈ 7.29 µM) in [6]; 1 µg/mL (≈ 7.29 µM) in assay [7]. Besides, the MIC99 in assay [8] is 0.1 µg/mL (≈ 0.729 µM). Further, the IC50 in assay [4] (Mus musculus, read-out: IC50) was 14 µg/mL (≈ 102 µM).
As to `Clc1ccc(COC(Cn2ccnc2)c2ccc(Cl)cc2Cl)c(Cl)c1` (stereo not drawn) [Miconazole, reference compound], the MIC99 in assay [1] was 0.25 to 60 µg/mL (≈ 0.601 to 144 µM).
As to “(±)cis-4H-3a,4,12b-trihydro-2,2-dimethyl-1,3-dioxolo[4,5-h]benzofuro[3,2-g]benzopyran [Compound 21]”, the “MIC99 C. albicans” value in assay [1] is greater than 400 µg/mL. The IC50 in assay [4] is 12.8535 µg/mL.

The IC50 is the concentration that inhibits the measured activity by half. For orientation: MIC means the lowest concentration found to suppress growth.
